Measured values: patent US6054441A, “Oxypurine nucleosides and their congeners, and acyl derivatives thereof, for improvement of hematopoiesis” (priority 1995, dated 2000)

How the values were obtained:
Format in all cases: in vivo, Balb/C mice
[1] = tested on: hematopoietic recovery after cyclophosphamide; assay: Timing of administration, hematopoietic recovery after cyclophosphamide (Example 41); conditions: day 7
Procedure: Cyclophosphamide (CP) (275 mg/kg, i.p.) was administered to 81 Balb/C female mice weighing approximately 20 grams each. Twenty-four hours later treatment was begun. Mice were given a 0.4 ml i.p. injection of either physiological saline (controls), Tween 80 (0.2%), or palmitoylguanosine (5 μmoles/mouse/day in 0.2% Tween 80). The timing of the treatments was varied within the groups. The control group was given saline on days 1-6. The mice receiving Tween 80 were treated either on days 1-4, 4-6 or 1-6. Palmitoylguanosine-treated mice were treated either on days 1-2, 1-4, 3-5, 4-6 or 1-6. If a group of mice received no Tween 80 or palmitoylguanosine on a given day, saline was administered by i.p. injection. Thus, there were 9 groups of 9 animals in all. On day 7 following CP administration all of the animals were bled and then sacrificed by cervical dislocation. Spleens were removed and weighed, and complete blood cell counts performed.

[2] = tested on: hematopoietic recovery after 5-fluorouracil; assay: Hematopoietic recovery after 5-fluorouracil (Example 43)
Procedure: 5-fluorouracil (5-FU) (150 mg/kg,i.p.) was administered to fifty-four Balb/C female mice weighing approximately 20 grams each. Twenty-four hours later and each day thereafter for a total of 7 days, mice were given a 0.4 ml i.p. injection of either physiological saline (controls) or palmitoylguanosine (2.5 μmoles/mouse/day in 0.2% Tween 80). On days 8, 10 and 12 following administration of 5-FU nine animals from each group were bled and then sacrificed by cervical dislocation. Spleens were removed and weighed, and complete blood cell counts performed.

[3] = tested on: hematopoietic recovery after cyclophosphamide; assay: Hematopoietic recovery after cyclophosphamide, acyl chain length (Example 38); conditions: day 7
Procedure: Cyclophosphamide (CP) (275 mg/kg, i.p.) was administered to 70 Balb/C female mice weighing approximately 20 grams each. Twenty-four hours later and each day thereafter for a total of 6 days, mice were given a 0.4 ml i.p injection of either physiological saline (controls), Tween 80 (0.2%), guanosine (5 μmoles/mouse/day in 0.2% Tween 80), or 2.5 μmoles per mouse per day of one of the following acylated derivatives of guanosine in 0.2% Tween 80: triacetylguanosine, octanoylguanosine, lauroylguanosine, or palmitoylguanosine. On day 7 following CP administration all 10 animals from each of the 7 groups were bled, and then sacrificed by cervical dislocation. Spleens were removed and weighed, and complete blood counts performed.

[4] = tested on: hematopoiesis in normal mice; assay: Hematopoiesis in normal mice (Example 44)
Procedure: Normal, otherwise untreated, female Balb/C mice weighing approximately 20 grams each received a total of 4 or 9 0.4 ml intraperitoneal injections (one per day) of either Tween-80 (0.2%) (controls), palmitoylguanosine (2.5 μmoles/mouse/day), or palmitoyldeoxyinosine (2.5 μmoles/mouse/day). Twenty-four hours after the 4th or 9th treatment, groups of 5 or 6 animals from each of the 3 groups were bled and then sacrificed by cervical dislocation. Spleens were removed and weighed, and complete blood cell counts performed.

[5] = tested on: hematopoietic recovery after cyclophosphamide; assay: Comparative dose-response, hematopoietic recovery after cyclophosphamide (Example 53)
Procedure: Cyclophosphamide (CP) (275 mg/kg, i.p.) was administered to 96 Balb/C female mice weighing approximately 20 grams each. Twenty-four hours later and each day thereafter mice were given a 0.4 ml i.p. injection of either physiological saline (controls), palmitoylguanosine at one of four different doses: 0.2, 0.4, 1.0 or 2.0 μmoles/mouse), or palmitoyldeoxyguanosine at a dose of 1.0 μmoles/mouse. On days 5 and 7 following CP administration 8 animals from each of the 6 groups were bled and then sacrificed by cervical dislocation. Spleens were removed and weighed, and complete blood cell counts performed.

[6] = tested on: hematopoietic recovery after cyclophosphamide; assay: Hematopoietic recovery after cyclophosphamide (Example 47)
Procedure: Cyclophosphamide (CP) (275 mg/kg, i.p.) was administered to 48 Balb/C female mice weighing approximately 20 grams each. Twenty-four hours later and each day thereafter for a total of 6 days, mice were given a 0.4 ml i.p. injection of either physiological saline (controls), benzoylguanosine (2.5 μmoles/mouse/day in 0.2% Tween 80), or palmitoylguanosine (2.5 μmoles/mouse/day in 0.2% Tween 80). On days 7 and 10 following CP administration 8 animals from each of the 3 groups were bled and then were sacrificed by cervical dislocation. Spleens were removed and weighed, and complete blood cell counts performed.

[7] = tested on: hematopoietic recovery after cyclophosphamide; assay: Hematopoietic recovery after cyclophosphamide (Example 50); conditions: day 5; 2 μmoles/mouse
Procedure: Cyclophosphamide (CP) (275 mg/kg, i.p.) was administered to 96 Balb/C female mice weighing approximately 20 grams each. Twenty-four hours later and each day thereafter mice were given a 0.4 ml i.p. injection of either Tween-80 (0.2%) (controls), palmitoyldeoxyguanosine (2 μmoles/mouse), palmitoyldeoxyinosine (2 μmoles/mouse), palmitoylacyclovir (2 μmoles/mouse), palmitoylarabinosylguanine (2 μmoles/mouse), palmitoylarabinosylhypoxanthine (2 μmoles/mouse), monopalmitoylguanosine 2',3'-acyclic dialcohol (2 μmoles/mouse), and palmitoyl-8-thioguanosine (2 μmoles/mouse). On days 5 and 7 following CP administration 6 animals in each of the 8 groups were bled and then sacrificed by cervical dislocation. Spleens were removed and weighed, and complete blood cell counts performed.

[8] = tested on: irradiated mice; assay: Survival of irradiated mice (Example 39); conditions: for mice surviving 30 days after irradiation over number irradiated: 50 mg/kg i.p., 6 days after irradiation
Procedure: Thirty female Balb/C mice weighing 20 grams each were irradiated with Cobalt 60 gamma radiation at a dose rate of 7.3 Rads per minute. The total dose was either 700, 725, or 750 Rads. Twenty-four hours later and each day thereafter for a total of 6 days, these mice received an i.p. injection of either physiological saline (controls) or 50 mg/kg of palmitoylguanosine. The number of animals surviving in each group was observed over a 30 day period.

[9] = day 5, palmitoylguanosine 2.0, palmitoyldeoxyguanosine 1.0 μmoles/mouse
[10] = day 7, palmitoylguanosine 1.0 and 2.0, palmitoyldeoxyguanosine 1.0 μmoles/mouse

In the case of `CCCCCCCCCCCCCCCC(=O)OC[C@H]1O[C@@H](n2cnc3c(=O)[nH]c(N)nc32)[C@H](O)[C@@H]1O`, the spleen weight ([1]; 5 μmoles/mouse/day, any time period, vs saline) is reported as “significantly greater spleen weight”, the “total white blood cell (WBC) counts” value ([1]; all periods except days 4-6, vs Tween 80) is reported as “significantly greater” and the spleen weight ([1]; any period, vs Tween 80) is reported as “larger spleens”. The “total white blood cell (WBC) counts” value ([1]; each treatment period, vs saline) was “significantly greater”, the lymphocyte counts ([1]; treatment days 1-2 or 1-6) was “elevated lymphocyte counts” and the spleen weight ([1]; treatment days 1-4 or 1-6, among periods) was “greatest effect on spleen weight”. The total neutrophil counts ([1]; treatment days 1-6) was “greatest increase in total neutrophil counts”, the “total white blood cell (WBC) counts” value ([1]; treatment days 1-6, vs other periods) was “greatest effect” and the total neutrophils ([1]; treatment days 1 and 2, vs saline or Tween 80) was “significant increase in total neutrophils”. The Platelets ([2]; day 8, 2.5 μmoles/mouse/day i.p., vs control) was “significantly greater”, the Platelets ([2]; day 10, vs control) was “greater numbers of platelets” and the spleen size ([2]; day 10, vs saline) was “significantly larger”. For the same molecule, the “number of neutrophils, fold greater than control” value ([2]; day 12) was 3 fold, the spleen weight ([2]; day 12, vs control) was “more than double” and the “white blood cell (WBC) counts” value [3] was “greatest effect on total WBC counts”. The spleen weight ([3]; guanosine 5, acyl derivatives 2.5 μmoles/mouse/day i.p.) was “significantly larger spleens”, the spleen weight ([4]; day 5, 2.5 μmoles/mouse/day i.p.) was “significantly greater” and the total leukocyte counts ([4]; day 10, vs Tween 80) was “significantly elevated”. The total neutrophil counts ([5]; day 5, palmitoylguanosine 1.0 μmoles/mouse) was “significantly increased”, the spleen weight [5, 9] was “significantly elevated” and the total neutrophil counts [5, 9] was “significantly elevated”. For the same molecule, the “white blood cell counts” value [5, 9] was “significantly elevated”, the spleen weight [5, 10] was “significantly elevated” and the total neutrophil counts [5, 10] was “significantly elevated”. The “white blood cell counts” value [5, 10] was “significantly elevated”, the Neutrophils ([6]; day 7, 2.5 μmoles/mouse/day) was “significantly elevated” and the spleen weight ([6]; day 7, 2.5 μmoles/mouse/day) was “significantly elevated”. The “total white blood cells” value ([6]; day 7, 2.5 μmoles/mouse/day) was “significantly elevated”, the platelet number ([6]; day 10) was “significantly greater” and the spleen weight [7] was “significantly elevated”. For the same molecule, the mice surviving ([8]; 2 higher radiation doses, 30 days) was “all of the mice treated with palmitoylguanosine survived”, the “mice surviving 30 days after irradiation over number irradiated” value ([8]; 725 R) was 5/5 and the “mice surviving 30 days after irradiation over number irradiated” value ([8]; 750 R) was 5/5. The survival ([8]; pretreatment prior to irradiation) was “improved survival”.
